“Also recorded” adds a separate entry of the source.
Key:
altMnSODreport = assay: Testing of drugs for toxicity with the reporter gene system; assay type: cell-based; conditions: cells comprising the reporter gene system
Procedure: Drugs are tested alone or in combination in cancerous or diseased cells and in healthy cells. The compounds are added to cells comprising the reporter gene system. The induction of the reporter is characterized in the absence and the presence of the drug(s).
Breast cancer cell line, MDA-MB-435, Her-2/neu over-expressing (ATCC), fibroblast cells lines NIH3T3 and B104, which are NIH3T3 cells transfected with the rat ErbB2/Her2 oncogene, and normal primary cells (Clonetics; rat cardiomyocytes, donated by Kathryn Maschhoff, MD PhD, Neonatology, University of Pennsylvania) are treated with doxorubicin alone and in combination with the rat ErbB2/Her2 17.6.4 monoclonal antibody, which downregulates the human and rat Her2 receptor (Zhang et al., 1999)(Oncogene), and Herceptin™ (Genentech). It is also determined if the Her2 mAbs induces isoMnSOD expression in untransfected cells and cells transfected with altMnSODreport. A dose-response curve is established, using western immunoblot analysis of the isoMnSOD protein and the expression of the reporter construct. A similar analysis is performed for doxorubicin treatment of cells. Both treatments are analyzed for their effects on mtDNA stability by Southern hybridization analysis, induction of lipid peroxidation by immunodetection of HNE-modified proteins, and induction of apoptosis by activation of caspases 9 and 3.

[1] = test system: adult cardiomyocyte explants; assay: Doxorubicin induction of isoMnSOD expression in adult heart explants (Western Blot); assay type: cell-based, rat; conditions: 3 days, 0.1 nM to 1.0 μM Doxorubicin, AdvDMEM 2% FBS, FIG. 3
From the text: Adult cardiomyocytes were isolated and purified following the combination of perfusion techniques (Borg et al. Recognition of extracellular matrix components by neonatal and adult cardiac myocytes. Dev Biol. 1984; 104:86-96) and an attachment procedure (Bugaisky L B, Zak R. Differentiation of adult rat cardiac myocytes in cell culture. Circ Res. 1989; 64:493-500) as described by Sil et al. (Sil et al. Myotrophin in human cardiomyopathic heart. Circ Res. 1993; 73:98-108). Briefly, after rats (5 weeks old) were killed by decapitation, the hearts were aseptically excised and residual blood was removed. The heart was perfused in Joklik's medium (containing Joklik's minimal essential medium, 25 mmol/L glutamic acid, 30 mmol/L taurine, and 1 mmol/L adenosine) without recirculation on a modified Langendorff apparatus for approximately 10 minutes at 37° C. The perfusion was then continued for 30 minutes at the same temperature, with recirculation in Joklik's medium containing collagenase type II (100 U/mL). After perfusion, the ventricles were cut into small pieces and tritulated in 0.05% Trypsin/EDTA for 10 min. Cardiac explants were cultured overnight on laminin-coated (20 μg per well) 35-mm six-well plates in medium 199 containing 5% FBS, 5 mM creatine, 2 mM L-carnitine, and 5 mM taurine. […]

isoMnSOD [2] = assay: Pro-oxidant activity of isoMnSOD, at least one of the assays provided in the Examples; conditions: according to at least one of the assays provided in the Examples
Procedure: (§1) Each test compound was prepared by mixing 5 μL of a 1 mM test compound stock solution in ethanol with 5 μL of 0.1 M KOH, followed by the addition of 5 ml of TBS for a final concentration of 1 μM test compound. Equal amounts of native protein extracts from pancreatic mitochondria (obtained according to the protocol of Example 5) were loaded in separate wells and resolved in a 7% PAGE gel without SDS, electrotransferred to PVDF and divided into strips. Each PVDF strip was incubated with 1 μM of test compound in TBS for 30 minutes, washed twice in TBS for 20 minutes, and the peroxidative activity of isoMnSOD was measured by incubation of each strip with 1 mM H2O2 in 0.4 ml of the luminol solution contained within the Femtomole chemiluminescence assay kit (Pierce) and exposed to x-ray film (FIG. 4).
Peroxidative assay of native mitochondrial extracts analyzed by the ROS-activity blot.

isoMnSOD [3] = assay: Peroxidative assay of native mitochondrial extracts from compound-treated pancreatic explants (ROS-activity blot); assay type: cell-based, pig; conditions: pancreatic explant cultured 1 hr at 37° C. with equal volume of 2 μM compound; FIG. 1
Procedure: Recombinant and mammalian detergent extracts of native mitochondrial proteins were separated in a 7% PAGE gel without SDS containing 375 mM Tris pH 8.2 at 100 volts for 1.5 hr. After electrotransfer of proteins to nitrocellulose using transfer buffer without SDS, peroxidative activity was measured directly upon the filter by their incubation with 0.5 ml of the Femtomole luminol solution (Pierce) containing 1 mM H2O2 and exposing to x-ray film or other means of detecting chemiluminescence.
F10 medium was used throughout the procedure. Pancreas (8 grams) from a 3 kilo pig was minced, washed twice, and 1 g of tissue was resuspended in 5 ml of FIO medium. […] Explants were stored frozen at −70° C. Tissue was homogenized in Buffer A at 4° C. and mitochondria was isolated by differential centrifugation and stored frozen at −70° C. Peroxidative assay of native mitochondrial extracts analyzed by the ROS-activity blot.

isoMnSOD [4] = assay: Drug inhibition method: peroxidative activity of isoMnSOD on PVDF strips (ROS-activity blot); conditions: 1 μM test compound for 30 minutes; 1 mM H2O2, luminol chemiluminescence; FIG. 4
Procedure: as §1
All procedures were carried out at 4° C.

isoMnSOD [5] = biological target: T1, isoMnSOD (Homo sapiens, UniProt P04179); assay: Detection of inhibitors bound to isoMnSOD (immunoprecipitation/western blot); conditions: anti-dopamine or anti-serotonin antibody; FIG. 2A and 2B
T1 sequence (P04179 25-183 isoform P04179-2 limits assumed): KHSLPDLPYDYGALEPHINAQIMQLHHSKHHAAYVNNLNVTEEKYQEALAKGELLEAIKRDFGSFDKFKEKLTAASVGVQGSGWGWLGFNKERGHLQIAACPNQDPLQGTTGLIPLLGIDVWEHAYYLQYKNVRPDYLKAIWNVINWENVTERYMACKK
Procedure: Covalent modification of the MnSOD-Exon3-deleted isoform was measured by a combined immuneprecipitation/western blot analysis. Immunoblots for detecting AA-DA, EPA-DA, DHA-DA, C18:4(ω-3)-DA adducts were performed using anti-dopamine rabbit polyclonal (Chemicon) and anti-serotonin goat polyclonal antibodies (ImmunoStar), respectively. After immunoprecipitating using an antibody against the inhibitor, isoMnSOD was detected as described above.

Molecule | expression of altMnSOD report (altMnSODreport) | isoMnSOD expression [1] | pro-oxidant activity of isoMnSOD (isoMnSOD [2]) | mitochondrial peroxidase activity (isoMnSOD [3]) | peroxidative activity of isoMnSOD (isoMnSOD [4]) | binding to isoMnSOD (covalent modification of the MnSOD-Exon3-deleted isoform) (isoMnSOD [5])
COc1cccc2c1C(=O)c1c(O)c3c(c(O)c1C2=O)C[C@@](O)(C(=O)CO)C[C@@H]3O[C@H]1C[C@H](N)[C@H](O)[C@H](C)O1 [Doxorubicin] | causes an increase in expression of altMnSOD report | induced isoMnSOD expression; also recorded: induces the expression of isoMnSOD |  |  |  | 
CC/C=C\C/C=C\C/C=C\C/C=C\C/C=C\CCCC(=O)NCCc1ccc(O)c(O)c1 [eicosapentaenoyl (EPA)-dopamine, eicosapentaenoyl dopamine] |  |  | found to inhibit pro-oxidant activity of isoMnSOD | did not inhibit peroxidase activity to the same effect | inhibit peroxidative activity more significantly than the other compounds | 
C18:4(ω-3)-dopamine |  |  | found to inhibit pro-oxidant activity of isoMnSOD | inhibited the mitochondiral peroxidase activity | inhibit peroxidative activity more significantly than the other compounds | able to bind to isoMnSOD
CCCCC/C=C\C/C=C\C/C=C\C/C=C\CCCC(=O)NCCc1c[nH]c2ccc(O)cc12 [arachidonoyl-serotonin, arachidonoyl serotonin] |  |  | found to inhibit pro-oxidant activity of isoMnSOD | inhibited the mitochondiral peroxidase activity |  | able to bind to isoMnSOD
CC/C=C\C/C=C\C/C=C\C/C=C\C/C=C\C/C=C\CCC(=O)NCCc1ccc(O)c(O)c1 [docosahexaenoyl (DHA)-dopamine, docosahexaenoyl dopamine] |  |  | found to inhibit pro-oxidant activity of isoMnSOD | inhibited the mitochondiral peroxidase activity | inhibit peroxidative activity more significantly than the other compounds | able to bind to isoMnSOD

— patent publication US8324279B2, “Compositions and methods for inhibiting an isoform of human manganese superoxide dismutase” (MitoTek, LLC, priority 2003, dated 2012)
